Columns and labels:
[1] = system: HS-PSS; assay: relative IC50 (inflection point of fitted dose-response curve, CellTiter-Glo viability, 72 h; top asymptote may be below 50% inhibition); higher = less potent
How it was run: (§1)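 Viability was scored by CellTiter-Glo ATP luminescence, scaled from vehicle to positive-control wells, with duplicates averaged where present. The cells, MPNST lines and primary human Schwann cells at 750–1000 per well, sat 72 h at 37 °C, 5% CO2, in 384-well plates preprinted with each compound at five concentrations in 10-fold steps. Four-parameter logistic fits were run on the data. These fits give drug sensitivity score and relative IC50 censored at the top concentration, and percent inhibition is reported at the top concentration.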

[2] = system: HSC2; assay: as above
How it was run: as §1

[3] = system: S462; assay: as above
How it was run: as §1

[4] = system: S1507-2; assay: as above
How it was run: as §1

[5] = system: ST8814; assay: as above
How it was run: as §1

[6] = system: HS-Sch-2; assay: as above
How it was run: as §1

[7] = system: HSC1; assay: as above
How it was run: as §1

[8] = system: HS-PSS; assay: relative IC50 (inflection point of fitted dose-response curve, CellTox-Green cytotoxicity, 72 h; top asymptote may be below 50%); higher = less potent
How it was run: (§2)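 MPNST cell lines and primary human Schwann cells were incubated 72 h at 37 °C in 384-well plates holding five 10-fold compound dilutions. CellTox-Green was added before seeding at a final 1:1000 dilution and reported fluorescence from DNA released by disrupted cells. Signals were scaled to vehicle and positive-control wells, and cultures failing plate quality control were dropped. Drug sensitivity score and relative IC50 come from four-parameter logistic fits, with IC50 censored at the top concentration.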

[9] = system: HSC2; assay: as above
How it was run: as §2

[10] = system: STS26T; assay: as above
How it was run: as §2

[11] = system: S1507-2; assay: as above
How it was run: as §2

[12] = system: ST8814; assay: as above
How it was run: as §2

[13] = system: HSC1; assay: as above
How it was run: as §2

[14] = system: STS26T; assay: relative IC50 (inflection point of fitted dose-response curve, CellTiter-Glo viability, 72 h; top asymptote may be below 50% inhibition); higher = less potent
How it was run: as §1

[15] = system: YST-1; assay: as above
How it was run: as §1

Compound	relative IC50 [1]	relative IC50 [2]	relative IC50 [3]	relative IC50 [4]	relative IC50 [5]	relative IC50 [6]	relative IC50 [7]	relative IC50 [8]	relative IC50 [9]	relative IC50 [10]	relative IC50 [11]	relative IC50 [12]	relative IC50 [13]	relative IC50 [14]	relative IC50 [15]
CS(=O)(=O)CCNCc1ccc(-c2ccc3ncnc(Nc4ccc(OCc5cccc(F)c5)c(Cl)c4)c3c2)o1 [Lapatinib]	> 1000 nM	> 1000 nM	> 1000 nM	> 1000 nM	> 1000 nM	> 1000 nM	> 1000 nM	> 1 µM	> 1 µM	> 1 µM	> 1000 nM	> 1000 nM	> 1 µM	–	–
C=CCc1cccc(/C=N/NC(=O)CN2CCN(Cc3ccccc3)CC2)c1O [PAC-1]	2320 nM	1370 nM	3490 nM	3660 nM	2920 nM	1130 nM	1890 nM	2.02 µM	> 10 µM	> 10 µM	> 10000 nM	–	> 10 µM	2530 nM	2.43 µM
O=C(NC[C@H](O)CO)c1ccncc1Nc1ccc(I)cc1F [Pimasertib]	2390 nM	846 nM	507 nM	476 nM	971 nM	962 nM	730 nM	> 10 µM	> 10 µM	–	2160 nM	2060 nM	–	241 nM	3.8 µM
Cc1ccc(-c2cc(C(F)(F)F)nn2-c2ccc(S(N)(=O)=O)cc2)cc1 [Celecoxib]	> 10000 nM	> 10000 nM	> 10000 nM	> 10000 nM	> 10000 nM	> 10000 nM	–	> 10 µM	> 10 µM	> 10 µM	> 10000 nM	> 10000 nM	> 10 µM	> 10000 nM	> 10 µM
CN1CCN(CCOc2cc(OC3CCOCC3)c3c(Nc4c(Cl)ccc5c4OCO5)ncnc3c2)CC1 [Saracatinib]	1570 nM	1530 nM	818 nM	1530 nM	1320 nM	2810 nM	452 nM	–	8.11 µM	–	99.5 nM	1550 nM	> 10 µM	1110 nM	–
COc1cc(O)c2c(c1)/C=C/C[C@H](O)[C@H](O)C(=O)/C=C\C[C@H](C)OC2=O [(5Z)-7-Oxozeaenol]	3820 nM	1320 nM	1660 nM	2450 nM	1330 nM	2790 nM	1690 nM	> 10 µM	3.9 µM	3.07 µM	3520 nM	–	–	1360 nM	2.02 µM
CCCCCOC(=O)Nc1nc(=O)n([C@@H]2O[C@H](C)[C@@H](O)[C@H]2O)cc1F [Capecitabine]	> 10000 nM	> 10000 nM	> 10000 nM	> 10000 nM	> 10000 nM	> 10000 nM	> 10000 nM	> 10 µM	> 10 µM	> 10 µM	> 10000 nM	> 10000 nM	> 10 µM	–	> 10 µM

From the supplement of paper PMC5579334
